{"source": "patent US11524003B2", "about": "“Alpha-amino esters of hydroxypropylthiazolidine carboxamide derivative and salt form, crystal polymorph thereof” (ObsEva S.A., priority 2016, dated 2022)", "key": {"[1]": {"system": "proinflammatory proteins (COX-2, p-cPLA2, p-p65, p-p38, p-ERK)", "test": "Western blot of proinflammatory proteins in human myometrial and amnion biopsies", "procedure": "FIG. 79a is a Western blot showing the effects of oxytocin, nolasiban, and a combination thereof on the expression of phosphorylated p65 (p-p65), phosphorylated p38 (p-p38), and phosphorylated extracellular signal-regulated kinase (p-ERK) in N=6 term, pre-laboring myometrial biopsies collected from human female subjects undergoing caesarean section delivery. Samples were either unstimulated (“NS”), stimulated with oxytocin (“OT”), treated with nolasiban at a concentration of 1 μM, or treated with both oxytocin and nolasiban at a concentration of 1 μM for the indicated periods of time. A blot against β-actin was performed as a control. FIG. 79b is a Western blot showing the effects of oxytocin and/or varying concentration of compound II, optionally in combination with nolasiban, on the expression of p-p65, p-p38, and p-ERK in N=6 term, pre-laboring myometrial biopsies collected from human female subjects undergoing caesarean section delivery. Samples were either unstimulated (“NS”), stimulated with oxytocin (“OT”), treated with compound II at a concentration of 3 μM, or treated with both oxytocin and compound II at varying concentrations of compound II, both in the presence and absence of nolasiban at a concentration of 1 μM for the indicated periods of time. A blot against β-actin was performed as a control. […]"}, "[2]": {"system": "panel of 50 receptors, channels and enzymes binding sites", "conditions": "1 μM"}}}
{"molecule": "O=C(N[C@@H](CCO)c1ccc(F)cc1)[C@@H]1SCCN1S(=O)(=O)c1ccc(-c2ccccc2)cc1", "note": "[Compound II, 3-([1,1′-biphenyl]-4-ylsulfonyl)-N-[1-(4-fluorophenyl)-3-hydroxypropyl]-1,3-thiazolidine-2-carboxamide]", "values": [{"measurement": "Expression of proinflammatory proteins", "setting": "[1]", "result": "capable of reducing the expression of various proinflammatory proteins"}, {"measurement": "Selectivity in panel of 50 receptors, channels and enzymes", "setting": "[2]", "result": "high selectivity for FP"}]}
